Assay results: PubChem BioAssay (NCI)
Where “and” joins values, the source holds several entries; their conditions need not be identical. Identical values can stand only once.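 The compound was tested at five concentrations on cells cultured in 96-well plates, with a 48-hour exposure period. Abbreviation: GI50, concentration required for 50% inhibition of growth. TGI is the concentration that stops growth completely.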

Columns and labels:
Experiment in all cases: NCI anticancer screen, dose series, 48 h
OVCAR-3 ovarian = test system: OVCAR-3 ovarian
UACC-62 melanoma = test system: UACC-62 melanoma
A549 NSCLC = test system: A549 NSCLC
IGROV1 ovarian = test system: IGROV1 ovarian
SK-OV-3 ovarian = test system: SK-OV-3 ovarian
COLO 205 colon = test system: COLO 205 colon
OVCAR-4 ovarian = test system: OVCAR-4 ovarian
RXF 393 renal = test system: RXF 393 renal
BT-549 breast = test system: BT-549 breast
PC-3 prostate = test system: PC-3 prostate

Row | SMILES | TGI (OVCAR-3 ovarian) | TGI (UACC-62 melanoma) | TGI (A549 NSCLC) | TGI (IGROV1 ovarian) | TGI (SK-OV-3 ovarian) | TGI (COLO 205 colon) | TGI (OVCAR-4 ovarian) | TGI (RXF 393 renal) | GI50 (COLO 205 colon) | GI50 (UACC-62 melanoma) | GI50 (BT-549 breast) | TGI (BT-549 breast) | GI50 (A549 NSCLC) | TGI (PC-3 prostate) | GI50 (SK-OV-3 ovarian) | GI50 (OVCAR-3 ovarian) | GI50 (OVCAR-4 ovarian) | GI50 (IGROV1 ovarian) | GI50 (RXF 393 renal) | GI50 (PC-3 prostate)
1 | COc1ccc(C(=O)C(c2ccc(OC)cc2)C2(O)C(=O)Nc3ccccc32)cc1 (stereo unspecified) | > 100 µM | > 100 µM | > 100 µM | > 100 µM | > 100 µM | – | – | – | – | – | – | – | – | – | – | – | – | – | – | –
2 | CN(C)CCNC(=O)c1cc2ccccc2c2nc3ccccc3nc12 | 6.35 µM | 7.3 µM | > 44.4 µM | > 20.7 µM | > 31.6 µM | > 100 µM | 2.34 µM | 2.33 µM | – | – | – | – | – | – | – | – | – | – | – | –
3 | O=c1cc(-c2cccc(C(F)(F)F)c2)[nH]c2cc3c(cc12)OCO3 | – | – | 50 µM | 50 µM | 29.1 µM and 16.8 µM | 24 µM and > 100 µM | – | – | 5.1 µM | 0.356 µM | 0.359 µM | 50 µM and > 100 µM | 0.521 µM | > 100 µM | 0.326 µM | – | – | – | – | –
4 | O=S(=O)(O)O.[NH-]C1CCCCC1[NH-].[Pt+2] (stereo unspecified) | > 100 µM | > 100 µM | > 100 µM | > 100 µM | > 100 µM | > 100 µM | > 100 µM | > 100 µM | > 100 µM | > 100 µM | – | – | 80.4 µM | – | > 100 µM | > 100 µM | 67.2 µM | > 100 µM | > 100 µM | –
5 | C/C(CC(=O)Nc1ccc(Cl)c(Cl)c1)=N/NC(=O)C[n+]1ccccc1 | > 100 µM | > 100 µM | > 100 µM | > 100 µM | > 100 µM | > 100 µM | > 100 µM | > 100 µM | – | – | – | – | – | – | – | – | – | – | – | –
6 | Oc1ccccc1-c1nn(CNc2cccc(Cl)c2)c(=S)o1 | > 100 µM | > 100 µM | > 100 µM | > 100 µM | > 100 µM | > 100 µM | – | > 100 µM | 53.8 µM | 41.5 µM | 94.4 µM | > 100 µM | 74.8 µM | > 100 µM | > 100 µM | 30.4 µM | – | 81.5 µM | 82.4 µM | 32.9 µM
7 | O=c1c2cccc(Cl)c2sc2c(NCCCNCCO)nc3ccccc3c12 | 6.19 µM | 3.15 µM | 3.39 µM | 6.86 µM | – | 4.39 µM | 19.6 µM | 4 µM | 1.9 µM | 1.65 µM | 14.8 µM | 30.6 µM | 1.31 µM | 15.5 µM | – | 2.28 µM | 5.43 µM | 0.941 µM | 1.69 µM | 3.45 µM
8 | COc1ccc2c(c1)c(-c1ccc(-c3cn(S(=O)(=O)c4ccccc4)c4ccc(OC)cc34)s1)cn2S(=O)(=O)c1ccccc1 | > 100 µM | > 100 µM | > 100 µM | > 100 µM | > 100 µM | > 100 µM | > 100 µM | – | > 100 µM | > 100 µM | – | – | > 100 µM | > 100 µM | > 100 µM | > 100 µM | > 100 µM | > 100 µM | – | > 100 µM
9 | COc1ccc(C(=O)OCC2OC(n3cnc4c(=S)nc[nH]c43)C(OC(=O)c3ccc(OC)cc3)C2OC(=O)c2ccc(OC)cc2)cc1 (stereo unspecified) | > 100 µM | > 100 µM | > 100 µM | > 100 µM | – | > 100 µM | > 100 µM | – | – | – | – | – | – | – | – | – | – | – | – | –
